Laboratory results published in patent US6608082B1, “Treatment of erectile dysfunction using isoquinoline compound melanocortin receptor ligands” (Lion Bioscience AG, priority 1998, dated 2003).
Like-named read-outs stand apart in the source and are kept apart here.

Legend:
MCR-4 = target: T1, MCR-4 (Homo sapiens, UniProt P32245); assay: Melanocortin receptor binding assay, competition with 125I-HP 467, HEK 293 cells expressing hMCR-4; details: for IC50: read-out: MC-4 IC50
T1 construct: expressed in transfected cells; host or cells: HEK 293
T1 sequence (P32245 whole entry): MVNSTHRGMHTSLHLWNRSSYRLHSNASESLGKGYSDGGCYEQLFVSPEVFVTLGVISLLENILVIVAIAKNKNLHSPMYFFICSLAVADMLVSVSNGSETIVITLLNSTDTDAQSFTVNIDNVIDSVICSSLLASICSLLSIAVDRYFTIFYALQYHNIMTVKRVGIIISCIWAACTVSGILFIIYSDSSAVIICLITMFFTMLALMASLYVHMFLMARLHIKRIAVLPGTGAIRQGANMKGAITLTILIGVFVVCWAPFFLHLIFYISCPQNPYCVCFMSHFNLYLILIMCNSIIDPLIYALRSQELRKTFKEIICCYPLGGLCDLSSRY
Outline: (§1)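 Intact-cell competition binding, 2.5 hr at 37 °C, in PBS/10% calf serum/1 mM CaCl2; hMCR-4 cells at 4×10^3 per tube, hMCR-1 cells at 2×10^4 per tube. Filtration on BSA/CaCl2-soaked GF/B, cold 50 mM Tris pH 7.4 washes, scintillation count.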

MCR-1 = target: T2, MCR-1 (Homo sapiens, UniProt Q01726); assay: Melanocortin receptor binding assay, competition with 125I-HP 467, HEK 293 cells expressing hMCR-1; details: for IC50: read-out: MC-1 IC50
T2 construct: expressed in transfected cells; host or cells: HEK 293
T2 sequence (Q01726 whole entry): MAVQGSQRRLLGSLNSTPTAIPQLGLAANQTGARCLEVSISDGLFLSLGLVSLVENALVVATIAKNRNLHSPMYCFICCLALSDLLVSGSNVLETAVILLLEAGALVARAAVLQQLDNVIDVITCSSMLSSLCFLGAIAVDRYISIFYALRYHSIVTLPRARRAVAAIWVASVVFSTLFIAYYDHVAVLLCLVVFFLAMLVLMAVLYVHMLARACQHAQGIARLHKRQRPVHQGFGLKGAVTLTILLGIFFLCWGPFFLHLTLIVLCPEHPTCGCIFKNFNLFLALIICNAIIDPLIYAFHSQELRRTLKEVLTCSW
Outline: as §1

[1] = inhibition of binding of 125I-HP 467, HEK 293 cells expressing MCR-4
[2] = inhibition of binding of 125I-HP 467, HEK 293 cells expressing MCR-1
[3] = TRG 2406 and TRG 2407 libraries, inhibition of binding of 125I-HP 467
[4] = competition with 125I-HP 467, HEK 293 cells expressing MCR-4
[5] = competition with 125I-HP 467, HEK 293 cells expressing MCR-1
[6] = inhibition of binding of 125I-HP 467, HEK 293 cells expressing MCR-4, TRG 2414 library
[7] = inhibition of binding of 125I-HP 467, HEK 293 cells expressing MCR-1, TRG 2414 library
[8] = TRG 2414 library, inhibition of binding of 125I-HP 467, HEK 293 cells expressing MCR-4
[9] = TRG 2414 library, inhibition of binding of 125I-HP 467, HEK 293 cells expressing MCR-1
[10] = TRG 2408 and TRG 2409 libraries, inhibition of 125I-HP 467 binding

CCNc1ccc(C2C(CN)c3ccccc3CN2CCCC(CN)NCC2CC2CNCc2ccccc2)cc1 (centres unmarked) [TRG 2420-26]
IC50 (MCR-4; [1]): 5.01 µM | IC50 (MCR-1; [2]): 0.093 µM

CNC(CN)CCCCN1Cc2ccccc2C(CNCc2ccccc2O)C1c1cccn1C (centres unmarked) [TRG 2406-1]
IC50 (MCR-4; [3]): 5.85 µM | IC50 (MCR-1; [3]): 3.79 µM

CCOc1ccc(CCNCC2c3ccccc3CN(CCCCC(CN)NCc3ccc(OC)cc3)C2c2cccc(C(F)(F)F)c2)cc1 (centres unmarked) [TRG 2421-46]
IC50 (MCR-4; [1]): 3.61 µM | IC50 (MCR-1; [2]): 1.58 µM

CNC(CN)CCCCN1Cc2ccccc2C(CNC2CCCCC2)C1c1ccc(NCCc2ccccc2)cc1 (centres unmarked) [TRG 2409-19]
IC50 (MCR-4; [4]): 15.5 µM | IC50 (MCR-1; [5]): 2.08 µM

CCCOc1ccc(C2C(CNCCc3cccc(Cl)c3)c3ccccc3CN2CCCCC(CN)NCCc2ccccc2)cc1 (mixture of isomers) [TRG 2414-174]
IC50 (MCR-4; [6]): 5.42 µM | IC50 (MCR-1; [7]): 4.3 µM

CCCOc1ccc(C2C(CNCc3cccc(OC)c3)c3ccccc3CN2CCCCC(CN)NCC(C)c2ccc(CC(C)C)cc2)cc1 (mixture of isomers) [TRG 2414-180]
IC50 (MCR-4; [6]): 47.1 µM | IC50 (MCR-1; [7]): 8.19 µM

CCNc1ccc(C2C(CNCc3ccccc3OCC)c3ccccc3CN2CCCCC(CN)NC)cc1 (centres unmarked) [TRG 2407-55]
IC50 (MCR-4; [3]): 14.9 µM | IC50 (MCR-1; [3]): 0.19 µM

NCC(CCCCN1Cc2ccccc2C(CNCc2ccccc2)C1c1cc(C(F)(F)F)cc(C(F)(F)F)c1)NCc1ccccc1 (centres unmarked) [TRG 2414-71]
IC50 (MCR-4; [6]): 9.06 µM | IC50 (MCR-1; [7]): 17 µM

CCNc1ccc(C2C(CN)c3ccccc3CN2CCCC(CN)NCC2CC2CN(CC)CC)cc1 (centres unmarked) [TRG 2420-27]
IC50 (MCR-4; [1]): 4.19 µM | IC50 (MCR-1; [2]): 0.04 µM

NCC(CCCCN1Cc2ccccc2C(CNCc2ccccc2)C1c1ccc(Oc2ccccc2)cc1)NCc1ccccc1 (centres unmarked) [TRG 2414-151]
IC50 (MCR-4; [6]): 14.7 µM | IC50 (MCR-1; [7]): 1.81 µM

CCNC(CN)CCCCN1Cc2ccccc2C(CN)C1c1ccc(OCC)cc1 (centres unmarked) [TRG 2415-16]
IC50 (MCR-4; [1]): 3.99 µM | IC50 (MCR-1; [2]): 1.33 µM

CNC(CN)CCCCN1Cc2ccccc2C(CNC2CCCCC2)C1c1ccc(NCC2CCCCC2)cc1 (centres unmarked) [TRG 2409-15]
IC50 (MCR-4; [4]): 16.2 µM | IC50 (MCR-1; [5]): 1.65 µM

CCCCNc1ccc(C2C(CNCCc3ccccc3)c3ccccc3CN2CCCC(CN)NCC)cc1 (centres unmarked) [TRG 2411-190]
IC50 (MCR-4; [1]): 0.21 µM | IC50 (MCR-1; [2]): 0.19 µM

CCCCNc1ccc(C2C(CN)c3ccccc3CN2CCCCC(CN)NCCC2CCCCC2)cc1 (centres unmarked) [TRG 2411-111]
IC50 (MCR-4; [4]): 1.47 µM | effectiveness as MC receptor ligand (MCR-1; binding to MC receptors, Table 1): particularly effective MC receptor ligands | IC50 (MCR-1; [5]): 0.04 µM

CCNc1ccc(C2C(CNCCc3ccccc3)c3ccccc3CN2CCCC(CN)NCCc2ccc3ccccc3c2)cc1 (centres unmarked) [TRG 2411-161]
IC50 (MCR-4; [1]): 0.64 µM | IC50 (MCR-1; [2]): 0.16 µM

CCCOc1ccc(C2C(CNCCc3ccccc3OC)c3ccccc3CN2CCCCC(CN)NCCc2ccccc2)cc1 (centres unmarked) [TRG 2414-170]
IC50 (MCR-4; [6]): 7.34 µM | IC50 (MCR-1; [7]): 1.77 µM

CCCOc1ccc(C2C(CNC3CCCCC3)c3ccccc3CN2CCCCC(CN)NCC(C)c2ccc(CC(C)C)cc2)cc1 (centres unmarked) [Cmpd 200]
IC50 (MCR-4; [8]): 16.8 µM | IC50 (MCR-1; [9]): 7.59 µM

COc1ccc(CCNCC2c3ccccc3CN(CCCCC(CN)NCc3ccccc3)C2c2ccc(Oc3ccccc3)cc2)cc1 (centres unmarked) [TRG 2414-147]
IC50 (MCR-4; [6]): 8.5 µM | IC50 (MCR-1; [7]): 1.63 µM

NCC(CCCCN1Cc2ccccc2C(CNCc2ccccc2C(F)(F)F)C1c1cccc(Oc2ccccc2)c1)NCc1ccccc1 (centres unmarked) [TRG 2414-83]
MC-4 IC50 (MCR-4; [6]): no fit | IC50 (MCR-1; [7]): 31.5 µM

COc1ccc(CNCC2c3ccccc3CN(CCCCC(CN)NCCc3ccccc3)C2c2ccccc2Br)cc1 (centres unmarked) [Cmpd 222]
IC50 (MCR-4; [8]): 4.78 µM | IC50 (MCR-1; [9]): 5.05 µM

CCNc1ccc(C2C(CNC3CCCCC3)c3ccccc3CN2CCCC(CN)NCCNC)cc1 (centres unmarked) [TRG 2408-64]
IC50 (MCR-4; [10]): 25 µM | IC50 (MCR-1; [10]): 2.67 µM

CCNc1ccc(C2C(CN)c3ccccc3CN2CCCC[C@@H](CN)NCCCCOc2ccccc2)cc1 (some centres unmarked) [2424#8]
IC50 (MCR-4; [1]): 5.18 µM | IC50 (MCR-1; [2]): 0.22 µM

NCC(N)CCCCN1Cc2ccccc2C(CNC2CCCCC2)C1c1ccc(-c2ccccc2)cc1 (centres unmarked) [TRG 2408-21]
IC50 (MCR-4; [10]): 17.4 µM | IC50 (MCR-1; [10]): 1.73 µM

CC(C)Cc1ccc(C(C)CNC(CN)CCCCN2Cc3ccccc3C(CNC3CCCCCC3)C2c2cccc(Oc3ccccc3)c2)cc1 (centres unmarked) [TRG 2414-116]
MC-4 IC50 (MCR-4; [6]): no fit | IC50 (MCR-1; [7]): 53.7 µM

NCC(CCCCN1Cc2ccccc2C(CNCc2ccccc2)C1c1ccccc1Br)NCc1ccccc1 (centres unmarked) [Cmpd 231]
IC50 (MCR-4; [8]): 9.13 µM | IC50 (MCR-1; [9]): 11 µM

CCCCNc1ccc(C2C(CN)c3ccccc3CN2CCCC(CN)NCc2ccc(Cl)cc2)cc1 (centres unmarked) [TRG 2409-225]
IC50 (MCR-4; [4]): 1.12 µM | IC50 (MCR-1; [5]): 0.12 µM

CNC(CN)CCCCN1Cc2ccccc2C(CNC2CCCCC2)C1c1ccc(NCCOC)cc1 (centres unmarked) [TRG 2409-17]
IC50 (MCR-4; [4]): 27.5 µM | IC50 (MCR-1; [5]): 2.72 µM

COc1ccccc1CCNCC1c2ccccc2CN(CCCCC(N)CN)C1c1ccc(Oc2ccccc2)cc1 (centres unmarked) [Cmpd 265]
MC-4 IC50 (MCR-4; [8]): no fit | MC-1 IC50 (MCR-1; [9]): no fit

CCOc1ccccc1CNCC1c2ccccc2CN(CCCCC(N)CN)C1c1cccc(Oc2ccccc2)c1 (mixture of isomers) [TRG 2414-85]
IC50 (MCR-4; [6]): 2.17 µM | IC50 (MCR-1; [7]): 2.43 µM

CCNc1ccc(C2C(CNC3CCCCC3)c3ccccc3CN2CCCCC(CN)NCc2ccc(Cl)cc2)cc1 (centres unmarked) [TRG 2411-55]
IC50 (MCR-4; [4]): 2.05 µM | IC50 (MCR-1; [5]): 0.09 µM

CNCCNC(CN)CCCCN1Cc2ccccc2C(CNC2CCCCC2)C1c1ccc(Cl)cc1Cl (centres unmarked) [TRG 2408-16]
IC50 (MCR-4; [10]): 6.11 µM | IC50 (MCR-1; [10]): 1.79 µM

CNC(CN)CCCCN1Cc2ccccc2C(CNC2CCCCC2)C1c1ccc(NCc2ccc(Cl)cc2)cc1 (centres unmarked) [TRG 2409-24]
IC50 (MCR-4; [4]): 12.2 µM | IC50 (MCR-1; [5]): 3.95 µM

COc1cccc(CNCC2c3ccccc3CN(CCCCC(N)CN)C2c2cc(C(F)(F)F)cc(C(F)(F)F)c2)c1 (centres unmarked) [TRG 2414-57]
IC50 (MCR-4; [6]): 1.55 µM | IC50 (MCR-1; [7]): 7.7 µM

CCNc1ccc(C2C(CN)c3ccccc3CN2CCCC(CN)NCCCCN(CC)CC)cc1 (centres unmarked) [TRG 2419-7]
IC50 (MCR-4; [1]): 10.1 µM | IC50 (MCR-1; [2]): 0.141 µM

NCC(N)CCCCN1Cc2ccccc2C(CNC2CCCCC2)C1c1cccc(Oc2ccccc2)c1 (centres unmarked) [TRG 2414-117]
IC50 (MCR-4; [6]): 1.27 µM | IC50 (MCR-1; [7]): 1.93 µM

COc1ccc(CNCC2c3ccccc3CN(CCCCC(CN)NCc3ccccc3)C2c2ccc(Cl)cc2Cl)cc1 (centres unmarked) [TRG 2414-23]
IC50 (MCR-4; [6]): 6.14 µM | IC50 (MCR-1; [7]): 3.19 µM

COc1ccc(CNC(CN)CCCCN2Cc3ccccc3C(CNCCc3ccc(OC)c(OC)c3)C2c2cc(C(F)(F)F)cc(C(F)(F)F)c2)cc1 (centres unmarked) [TRG 2421-19]
IC50 (MCR-4; [1]): 0.52 µM | IC50 (MCR-1; [2]): 1.63 µM

NC[C@@H](CCCCN1Cc2ccccc2C(CNC2CCCCC2)C1c1ccc(Cl)cc1Cl)NCCc1ccccc1 (some centres unmarked) [TRG 2408-42]
IC50 (MCR-4; [10]): 4.24 µM | IC50 (MCR-1; [10]): 1.93 µM

CCCCNc1ccc(C2C(CNC3CCCCC3)c3ccccc3CN2CCCCC(CN)NCC)cc1 (mixture of isomers) [TRG 2411-87]
IC50 (MCR-4; [4]): 0.83 µM | IC50 (MCR-1; [5]): 0.23 µM

CCCOc1ccc(C2C(CNCCc3ccccc3OC)c3ccccc3CN2CCCCC(N)CN)cc1 (centres unmarked) [TRG 2414-169]
IC50 (MCR-4; [6]): 5.34 µM | IC50 (MCR-1; [7]): 0.518 µM

CC(C)Cc1ccc(C(C)CNC(CN)CCCCN2Cc3ccccc3C(CNCc3ccccc3)C2c2cc(C(F)(F)F)cc(C(F)(F)F)c2)cc1 (centres unmarked) [TRG 2414-72]
IC50 (MCR-4; [6]): 44.2 µM | MC-1 IC50 (MCR-1; [7]): no fit

CCOc1ccc(CCNCC2c3ccccc3CN(CCCCC(CN)NCc3ccc(C)cc3)C2c2cc(C(F)(F)F)cc(C(F)(F)F)c2)cc1 (centres unmarked) [TRG 2421-22]
IC50 (MCR-4; [1]): 8.22 µM | IC50 (MCR-1; [2]): 3.02 µM

CCNc1ccc(C2C(CNC3CCCCC3)c3ccccc3CN2CCCC(CN)NC)cc1 (centres unmarked) [TRG 2408-60]
IC50 (MCR-4; [10]): 20.7 µM | IC50 (MCR-1; [10]): 0.69 µM

CNC(CNC(CN)CCCCN1Cc2ccccc2C(CN)C1c1ccc(-c2ccccc2)cc1)Cc1ccccc1 (centres unmarked) [TRG 2411-30]
IC50 (MCR-4; [4]): 1.33 µM | IC50 (MCR-1; [5]): 0.3 µM
